# Test results as given in patent publication US11974989B2, “Therapeutic uses of glucokinase activators in combination with insulin or insulin analogs” (vTv Therapeutics LLC, priority 2018, dated 2024).
# “And” between values parts separate entries of the source, which are not always exact repeats. Identical values can stand only once.
# Tests used:
# Format in all cases: in vivo, human
# [1] = tested on: adult patients with type 1 diabetes (T1DM); assay: Open-label weekly dose escalation study: CGM blood glucose time in range; details: for median value of the percentage of time blood glucose levels were in the range of 70-180 mg/dL: median over subjects (FIG. 1), baseline 52.0%; for median value of the percentage of time blood glucose levels were greater than 180 mg/dL (hyperglycemia): median over subjects (FIG. 4), baseline 37%; for Percentage of time (using CGM) blood glucose level is in range of 70-180 mg/dL / Percentage of time (using CGM) blood glucose level is above 180 mg/dL / Percentage of time (using CGM) blood glucose level is below 54 mg/dL / Percentage of time (using CGM) blood glucose level is between 54 and 70 mg/dL: median of days 3-6, one per subject 1-5
# Experimental: (§1) An open-label, weekly dose escalation study with up to 3 dose escalations was conducted. Five adult patients with type 1 diabetes (T1DM) who were using a continuous glucose monitoring (CGM) device and insulin delivered by continuous subcutaneous insulin infusion (CSII) were dosed with a once daily with a dose of 400, 800 or 1200 mg of {2-[3-cyclohexyl-3-(trans-4-propoxy-cyclohexyl)-ureido]-thiazol-5-ylsulfanyl}-acetic acid (UT-1) for seven days at each dose level.
# (§2) The initial 7 days (days −7 to −1) of the study were used to obtain baseline laboratory samples and to record baseline insulin doses and blood glucose levels during a patient's usual insulin, dietary, and activity regimen. The once daily treatment dose of UT-1 was administered morning meal. Safety labs were collected on days −7, 1, 8, 15, 21 and 28. Insulin pump data and CGM data for each dosing period was collected on days 1, 8, 15, 21, and 28. Insulin was adjusted by a patient as required to maintain glycemic control. Data from day 3 to day 6 of each dosing period or baseline period was used in the analysis of the data.
# [2] = tested on: adult patients with type 1 diabetes (T1DM); assay: Open-label weekly dose escalation study: insulin pump data (bolus and basal insulin dose); details: for mean value of bolus insulin dose per day: over subjects (FIG. 5), baseline 27.1 mean U/day; for Mean units of basal insulin units administered per day / Mean units of bolus insulin units administered per day: mean of days 3-6, one per subject 1-5
# Experimental: as §1, §2
# [3] = tested on: adult patients with type 1 diabetes (T1DM); assay: Open-label weekly dose escalation study: safety labs; details: 400, 800, 1200 mg once daily, 7 days each
# Experimental: as §1, §2
# [4] = Open-label weekly dose escalation study: pharmacokinetic data; details: 1200 mg group compared to the 800 mg group
# Experimental: as §1, §2
# adult patients with T1DM [5] = assay: Multi-center double-blind placebo-controlled 12-week study, adjunct to insulin: HbA1c, responder analysis, ketones, insulin usage
# Experimental: (§3) A multi-center double-blind placebo-controlled study with a 2-week single-blind placebo run-in period to evaluate UT-1 as a potential adjunctive treatment to insulin therapy for T1DM was conducted. The study examined the response in 20 adult patients with T1DM who were using a continuous glucose monitoring (CGM) device and insulin delivered by continuous subcutaneous insulin infusion (CSII) dosed once daily with either placebo or 800 mg UT-1 for up to 12 weeks. The once daily treatment was administered with the morning meal. Safety and assessments labs were collected prior to the placebo-run in period, at Day 1 prior to dosing with blinded study medication, at weeks 2, 4, 6, 8, 12 and at approximately week 13. Insulin pump data and CGM data was collected from the single-blind placebo run-in period to the end of dosing. A quality of life and treatment satisfaction questionnaires were also used. Insulin was adjusted by patients as required to maintain glycemic control.
# Patients in this study received insulin adjustments to optimize glucose levels. […] Of all study patients, there was a greater proportion of responders in the group treated with UT-1 (75%) than in the placebo group (9%) (p=0.006).
# adult patients with T1DM [6] = assay: Multi-center double-blind placebo-controlled 12-week study: safety and tolerability; details: 800 mg once daily up to 12 weeks
# Experimental: as §3
structure (smiles),measurement,setting,value
"CCCO[C@H]1CC[C@H](N(C(=O)Nc2ncc(SCC(=O)O)s2)C2CCCCC2)CC1 [UT-1, {2-[3-cyclohexyl-3-(trans-4-propoxy-cyclohexyl)-ureido]-thiazol-5-ylsulfanyl}-acetic acid]",median value of the percentage of time blood glucose levels were in the range of 70-180 mg/dL,[1]; 400 mg dose,67.9%
same,median value of the percentage of time blood glucose levels were greater than 180 mg/dL (hyperglycemia),[1]; 400 mg dose,30.92%
same,median value of the percentage of time blood glucose levels were in the range of 70-180 mg/dL,[1]; 800 mg dose,75.7%
same,median value of the percentage of time blood glucose levels were greater than 180 mg/dL (hyperglycemia),[1]; 800 mg dose,20.46%
same,Percentage of time (using CGM) blood glucose level is in range of 70-180 mg/dL,[1]; UT-1 400 mg once daily for 7 days with CSII insulin,69.3% and 56.3% and 69.6% and 67.9% and 56.8%
same,Percentage of time (using CGM) blood glucose level is above 180 mg/dL,[1]; UT-1 400 mg once daily,20.91% and 42.54% and 22.49% and 30.92% and 36.99%
same,Percentage of time (using CGM) blood glucose level is below 54 mg/dL,[1]; UT-1 400 mg once daily,0% (3×) and 2.42% and 1.88%
same,Percentage of time (using CGM) blood glucose level is between 54 and 70 mg/dL,[1]; UT-1 400 mg once daily,4.2% and 0.86% and 5.54% and 0.54% and 4.97%
same,Percentage of time (using CGM) blood glucose level is in range of 70-180 mg/dL,[1]; UT-1 800 mg once daily for 7 days with CSII insulin,44.3% and 65.4% and 85.9% and 82.7% and 75.7%
same,Percentage of time (using CGM) blood glucose level is above 180 mg/dL,[1]; UT-1 800 mg once daily,50.66% and 34.56% and 14.07% and 16.82% and 20.46%
same,Percentage of time (using CGM) blood glucose level is below 54 mg/dL,[1]; UT-1 800 mg once daily,1.38% and 0% (4×)
same,Percentage of time (using CGM) blood glucose level is between 54 and 70 mg/dL,[1]; UT-1 800 mg once daily,3.27% and 0% (2×) and 0.17% and 0.69%
same,Percentage of time (using CGM) blood glucose level is in range of 70-180 mg/dL,[1]; UT-1 1200 mg once daily for 7 days with CSII insulin,52.9% and 48.8% and 80.9% and 69.6% and 59.3%
same,Percentage of time (using CGM) blood glucose level is above 180 mg/dL,[1]; UT-1 1200 mg once daily,42.24% and 50.68% and 18.79% and 24.62% and 30.09%
same,Percentage of time (using CGM) blood glucose level is below 54 mg/dL,[1]; UT-1 1200 mg once daily,0% (4×) and 3.84%
same,Percentage of time (using CGM) blood glucose level is between 54 and 70 mg/dL,[1]; UT-1 1200 mg once daily,0.17% (2×) and 0.86% and 1.28% and 5.84%
same,glycemic control and insulin dose (trend),"[1]; dose escalation 400, 800, 1200 mg once daily",trends toward improved glycemic control while reducing insulin dose
same,mean value of bolus insulin dose per day,[2]; 400 mg dose,25 mean U/day
same,mean value of bolus insulin dose per day,[2]; 800 mg dose,20 mean U/day
same,Mean units of basal insulin units administered per day,[2]; UT-1 400 mg once daily,23.9 mean U/day and 15.5 mean U/day and 29.3 mean U/day and 22.6 mean U/day
same,Mean units of bolus insulin units administered per day,[2]; UT-1 400 mg once daily,22.6 mean U/day and 29.9 mean U/day and 25.5 mean U/day and 23.3 mean U/day
same,Mean units of basal insulin units administered per day,[2]; UT-1 800 mg once daily,22.6 mean U/day and 15.3 mean U/day and 19.6 mean U/day and 29.8 mean U/day and 22.2 mean U/day
same,Mean units of bolus insulin units administered per day,[2]; UT-1 800 mg once daily,17.6 mean U/day and 23.4 mean U/day and 22.5 mean U/day and 22 mean U/day and 15.8 mean U/day
same,Mean units of basal insulin units administered per day,[2]; UT-1 1200 mg once daily,22.9 mean U/day and 13.9 mean U/day and 21.8 mean U/day and 30.5 mean U/day and 19.1 mean U/day
same,Mean units of bolus insulin units administered per day,[2]; UT-1 1200 mg once daily,16.2 mean U/day and 23.8 mean U/day and 20.9 mean U/day and 28 mean U/day and 25.2 mean U/day
same,ratio of mean carbohydrate intake per day to mean bolus insulin dose per day,"[2]; from baseline to 400 mg dose, and from 400 mg dose to 800 mg dose",increase
same,effect on liver function or plasma lipids,[3],No detrimental effect
same,concentrations of UT-1 (pharmacokinetic data),[4],lower in 3 out of 5 subjects
same,mean difference in HbA1c in the UT-1 group relative to the placebo group,"adult patients with T1DM [5]; 800 mg once daily, 12 weeks, p=0.03",0.7%
same,ending HbA1c,"adult patients with T1DM [5]; 800 mg once daily, at 12 weeks, n=8",6.7-6.8%
same,mean reduction in HbA1c,"adult patients with T1DM [5]; 800 mg once daily, at 12 weeks, n=8, baseline mean HbA1c 7.3%, statistically significant",0.6%
same,insulin usage (trend),"adult patients with T1DM [5]; 800 mg once daily, up to 12 weeks",trends toward decreased insulin usage
same,patients with abnormal levels of metabolic ketones observed in plasma or urine,"adult patients with T1DM [5]; 800 mg once daily, placebo 63%",13%
same,proportion of treatment responders,"adult patients with T1DM [5]; responder: decrease in HbA1c at Week 12, no abnormal lactate or metabolic ketones, no increased time in Level 2 hypoglycemia, placebo 9%, p=0.006",75%
same,tolerability,adult patients with T1DM [6]; similar incidences of treatment-emergent adverse events overall and by system organ class,well tolerated
same,diabetic ketoacidosis or severe hypoglycemia reports,adult patients with T1DM [6]; whole study,no report of diabetic ketoacidosis or severe hypoglycemia
same,serious adverse events,adult patients with T1DM [6]; whole study,no serious adverse event
